Publication PMC9076067 (RSC Advances, 2019)
≈ marks a conversion by molar mass, not a printed value. One block for each compound: values may come before it.

Key:
MRSA = conditions: cited from earlier work
Staphylococcus aureus = conditions: cited from earlier work
[1] = parallel artificial membrane permeability assay; type: in vitro ADME; conditions: 200 μM in PBS pH 7.4, five hours, room temperature
[2] = system: Streptococcus mutans ATCC25175; test: MIC/MBC by micro-dilution broth method; type: cell-based; conditions: S. mutans ATCC 25175
[3] = system: Staphylococcus epidermidis ATCC12228; test: MIC/MBC by micro-dilution broth method; type: cell-based; conditions: S. epidermidis ATCC 12228
[4] = system: Staphylococcus aureus ATCC6538; test: MIC/MBC by micro-dilution broth method; type: cell-based; conditions: S. aureus ATCC 6538
[5] = system: Micrococcus luteus ATCC10240; test: MIC/MBC by micro-dilution broth method; type: cell-based
[6] = system: Staphylococcus aureus ATCC43300; test: MIC/MBC by micro-dilution broth method; type: cell-based; conditions: S. aureus ATCC 43300

Compound: O=C1NC(=S)SC1=Cc1ccc(F)c(F)c1F [5-(2,3,4-trifluorobenzylidene)-rhodanine]
concentration inhibiting growth (MRSA): 32 mg/L
concentration inhibiting growth (Staphylococcus aureus): 0.5 mg/L

Compound: O=C(O)CN1C(=O)/C(=C/c2ccc(-c3ccc(N(c4ccccc4)c4ccccc4)cc3)cc2)SC1=S [5a, (Z)-2-(5-((4′-(Diphenylamino)-(1,1′-biphenyl)-4-yl)methylene)-4-oxo-2-thioxothiazolidin-3-yl)acetic acid]
ability to penetrate the membrane (PAMPA) [1]: none of the tested compounds had the ability to penetrate the cell membrane

MIC [2]: 62.5 µg/mL (≈ 124 µM)
MIC [3]: 1.95 µg/mL (≈ 3.86 µM)
MIC [4]: 1.95 µg/mL (≈ 3.86 µM)
MIC ([5]; M. luteus ATCC 10240): 1.95 µg/mL (≈ 3.86 µM)
MIC/MBC ([5]; ratio, ATCC 10240): 16
MIC [6]: 1.95 µg/mL (≈ 3.86 µM)
Compound: O=C(O)CN1C(=O)/C(=C/c2ccc(-c3ccc(N(c4ccccc4)c4ccccc4)cc3)cc2)NC1=S [7a, (Z)-2-(5-((4′-(Diphenylamino)-(1,1′-biphenyl)-4-yl)methylene)-4-oxo-2-thioxoimidazolidin-3-yl)acetic acid]

Compound: O=C(O)CN1C(=O)/C(=C/c2ccc(-c3ccc(N(c4ccccc4)c4ccccc4)cc3)c3ccccc23)SC1=S [5b, (Z)-2-(5-((4-(4-(Diphenylamino)phenyl)naphthalen-1-yl)methylene)-4-oxo-2-thioxothiazolidin-3-yl)acetic acid]
ability to penetrate the membrane (PAMPA) [1]: none of the tested compounds had the ability to penetrate the cell membrane

Compound: O=C(O)CN1C(=O)/C(=C/c2c3ccccc3c(-c3ccc(N(c4ccccc4)c4ccccc4)cc3)c3ccccc23)SC1=S [5c, (Z)-2-(5-((10-(4-(Diphenylamino)phenyl)anthracen-9-yl)methylene)-4-oxo-2-thioxothiazolidin-3-yl)acetic acid]
ability to penetrate the membrane (PAMPA) [1]: none of the tested compounds had the ability to penetrate the cell membrane
